≈ marks a conversion by molar mass, not a printed value.
Experiments:
Streptococcus pyogenes [1] = assay: Antimicrobial activity against Streptococcus pyogenes clinical isolates by broth microdilution method; type: functional
Streptococcus pyogenes [2] = assay: Antimicrobial activity against Streptococcus pyogenes clinical isolates assessed as resistant isolates by broth microdilution method; type: functional
Staphylococcus aureus [3] = assay: Antimicrobial activity against Staphylococcus aureus clinical isolates assessed as percent susceptible isolates by broth microdilution method; type: functional
Staphylococcus aureus [4] = assay: Antimicrobial activity against oxacillin-susceptible Staphylococcus aureus clinical isolates by broth microdilution method; type: functional
Streptococcus pneumoniae [5] = assay: Antimicrobial activity against penicillin-susceptible Streptococcus pneumoniae clinical isolates assessed as resistant isolates by broth microdilution method; type: functional
[6] = Antimicrobial activity against erythromycin-susceptible Streptococcus Group G clinical isolates assessed as percent susceptible isolates by broth microdilution method; type: functional, Streptococcus sp. 'group G'
[7] = Antimicrobial activity against Streptococcus Group C clinical isolates by broth microdilution method; type: functional; conditions: Streptococcus sp. 'group C'
Streptococcus pyogenes [8] = assay: Antimicrobial activity against erythromycin-nonsusceptible Streptococcus pyogenes clinical isolates assessed as percent susceptible isolates by broth microdilution method; type: functional
[9] = Antimicrobial activity against erythromycin-susceptible Streptococcus Group G clinical isolates by broth microdilution method; type: functional; conditions: Streptococcus sp. 'group G'
[10] = Antimicrobial activity against erythromycin-nonsusceptible Streptococcus Group C clinical isolates assessed as percent susceptible isolates by broth microdilution method; type: functional, Streptococcus sp. 'group C'
[11] = Antimicrobial activity against erythromycin-nonsusceptible Streptococcus Group G clinical isolates by broth microdilution method; type: functional; conditions: Streptococcus sp. 'group G'
Streptococcus pneumoniae [12] = assay: Antimicrobial activity against penicillin-intermediate Streptococcus pneumoniae clinical isolates by broth microdilution method; type: functional
Staphylococcus aureus [13] = assay: Antimicrobial activity against oxacillin-resistant Staphylococcus aureus clinical isolates assessed as percent susceptible isolates by broth microdilution method; type: functional
Staphylococcus aureus [14] = assay: Antimicrobial activity against oxacillin-susceptible Staphylococcus aureus clinical isolates assessed as resistant isolates by broth microdilution method; type: functional
Streptococcus pneumoniae [15] = assay: Antimicrobial activity against penicillin-susceptible Streptococcus pneumoniae clinical isolates by broth microdilution method; type: functional
Streptococcus pyogenes [16] = assay: Antimicrobial activity against erythromycin-nonsusceptible Streptococcus pyogenes clinical isolates assessed as resistant isolates by broth microdilution method; type: functional
[17] = tested on: Staphylococcus haemolyticus; assay: Antimicrobial activity against oxacillin-resistant Staphylococcus haemolyticus clinical isolates assessed as resistant isolates by broth microdilution method; type: functional
[18] = tested on: Staphylococcus haemolyticus; assay: Antimicrobial activity against Staphylococcus haemolyticus clinical isolates by broth microdilution method; type: functional
[19] = Antimicrobial activity against erythromycin-susceptible Streptococcus Group C clinical isolates by broth microdilution method; type: functional; conditions: Streptococcus sp. 'group C'
Streptococcus agalactiae [20] = assay: Antimicrobial activity against erythromycin-susceptible Streptococcus agalactiae clinical isolates assessed as percent susceptible isolates by broth microdilution method; type: functional
Streptococcus pneumoniae [21] = assay: Antimicrobial activity against penicillin-resistant Streptococcus pneumoniae clinical isolates by broth microdilution method; type: functional
[22] = tested on: Staphylococcus haemolyticus; assay: Antimicrobial activity against oxacillin-susceptible Staphylococcus haemolyticus clinical isolates assessed as resistant isolates by broth microdilution method; type: functional
[23] = tested on: Staphylococcus haemolyticus; assay: Antimicrobial activity against Staphylococcus haemolyticus clinical isolates assessed as resistant isolates by broth microdilution method; type: functional
Streptococcus agalactiae [24] = assay: Antimicrobial activity against erythromycin-nonsusceptible Streptococcus agalactiae clinical isolates assessed as resistant isolates by broth microdilution method; type: functional
Streptococcus agalactiae [25] = assay: Antimicrobial activity against Streptococcus agalactiae clinical isolates assessed as resistant isolates by broth microdilution method; type: functional
Streptococcus agalactiae [26] = assay: Antimicrobial activity against Streptococcus agalactiae clinical isolates assessed as percent susceptible isolates by broth microdilution method; type: functional
Streptococcus pneumoniae [27] = assay: Antimicrobial activity against penicillin-intermediate Streptococcus pneumoniae clinical isolates assessed as percent susceptible isolates by broth microdilution method; type: functional
Staphylococcus aureus [28] = assay: Antimicrobial activity against Staphylococcus aureus clinical isolates by broth microdilution method; type: functional
Streptococcus pneumoniae [29] = assay: Antimicrobial activity against Streptococcus pneumoniae clinical isolates assessed as percent susceptible isolates by broth microdilution method; type: functional
Streptococcus pneumoniae [30] = assay: Antimicrobial activity against Streptococcus pneumoniae clinical isolates assessed as resistant isolates by broth microdilution method; type: functional
Streptococcus agalactiae [31] = assay: Antimicrobial activity against erythromycin-susceptible Streptococcus agalactiae clinical isolates by broth microdilution method; type: functional
[32] = tested on: Staphylococcus epidermidis; assay: Antimicrobial activity against oxacillin-resistant Staphylococcus epidermidis clinical isolates by broth microdilution method; type: functional
Staphylococcus aureus [33] = assay: Antimicrobial activity against oxacillin-susceptible Staphylococcus aureus clinical isolates assessed as percent susceptible isolates by broth microdilution method; type: functional
Streptococcus pyogenes [34] = assay: Antimicrobial activity against erythromycin-susceptible Streptococcus pyogenes clinical isolates assessed as percent susceptible isolates by broth microdilution method; type: functional
[35] = Antimicrobial activity against Streptococcus Group G clinical isolates by broth microdilution method; type: functional; conditions: Streptococcus sp. 'group G'
Streptococcus pyogenes [36] = assay: Antimicrobial activity against Streptococcus pyogenes clinical isolates assessed as percent susceptible isolates by broth microdilution method; type: functional
Streptococcus agalactiae [37] = assay: Antimicrobial activity against erythromycin-nonsusceptible Streptococcus agalactiae clinical isolates assessed as percent susceptible isolates by broth microdilution method; type: functional
[38] = tested on: Staphylococcus epidermidis; assay: Antimicrobial activity against oxacillin-susceptible Staphylococcus epidermidis clinical isolates assessed as percent susceptible isolates by broth microdilution method; type: functional
Streptococcus [39] = assay: Antimicrobial activity against erythromycin-susceptible Streptococcus Group F clinical isolates by broth microdilution method; type: functional
Streptococcus [40] = assay: Antimicrobial activity against Streptococcus Group F clinical isolates by broth microdilution method; type: functional
Streptococcus pneumoniae [41] = assay: Antimicrobial activity against penicillin-resistant Streptococcus pneumoniae clinical isolates assessed as percent susceptible isolates by broth microdilution method; type: functional
Streptococcus pyogenes [42] = assay: Antimicrobial activity against erythromycin-susceptible Streptococcus pyogenes clinical isolates by broth microdilution method; type: functional
[43] = tested on: Staphylococcus haemolyticus; assay: Antimicrobial activity against Staphylococcus haemolyticus clinical isolates assessed as percent susceptible isolates by broth microdilution method; type: functional
Streptococcus pneumoniae [44] = assay: Antimicrobial activity against penicillin-resistant Streptococcus pneumoniae clinical isolates assessed as resistant isolates by broth microdilution method; type: functional
[45] = tested on: Staphylococcus haemolyticus; assay: Antimicrobial activity against oxacillin-susceptible Staphylococcus haemolyticus clinical isolates assessed as percent susceptible isolates by broth microdilution method; type: functional
Streptococcus pneumoniae [46] = assay: Antimicrobial activity against penicillin-intermediate Streptococcus pneumoniae clinical isolates assessed as resistant isolates by broth microdilution method; type: functional
[47] = tested on: Staphylococcus epidermidis; assay: Antimicrobial activity against Staphylococcus epidermidis clinical isolates by broth microdilution method; type: functional
Streptococcus pyogenes [48] = assay: Antimicrobial activity against erythromycin-nonsusceptible Streptococcus pyogenes clinical isolates by broth microdilution method; type: functional
[49] = tested on: Staphylococcus haemolyticus; assay: Antimicrobial activity against oxacillin-resistant Staphylococcus haemolyticus clinical isolates assessed as percent susceptible isolates by broth microdilution method; type: functional
[50] = tested on: Staphylococcus epidermidis; assay: Antimicrobial activity against Staphylococcus epidermidis clinical isolates assessed as percent susceptible isolates by broth microdilution method; type: functional
Streptococcus pneumoniae [51] = assay: Antimicrobial activity against penicillin-susceptible Streptococcus pneumoniae clinical isolates assessed as percent susceptible isolates by broth microdilution method; type: functional
[52] = Antimicrobial activity against erythromycin-nonsusceptible Streptococcus Group G clinical isolates assessed as percent susceptible isolates by broth microdilution method; type: functional, Streptococcus sp. 'group G'
Streptococcus pneumoniae [53] = assay: Antimicrobial activity against Streptococcus pneumoniae clinical isolates by broth microdilution method; type: functional
[54] = tested on: Staphylococcus haemolyticus; assay: Antimicrobial activity against oxacillin-susceptible Staphylococcus haemolyticus clinical isolates by broth microdilution method; type: functional
[55] = tested on: Staphylococcus epidermidis; assay: Antimicrobial activity against Staphylococcus epidermidis clinical isolates assessed as resistant isolates by broth microdilution method; type: functional
Staphylococcus aureus [56] = assay: Antimicrobial activity against oxacillin-resistant Staphylococcus aureus clinical isolates assessed as resistant isolates by broth microdilution method; type: functional
[57] = Antimicrobial activity against erythromycin-susceptible Streptococcus Group C clinical isolates assessed as percent susceptible isolates by broth microdilution method; type: functional, Streptococcus sp. 'group C'
Streptococcus agalactiae [58] = assay: Antimicrobial activity against Streptococcus agalactiae clinical isolates by broth microdilution method; type: functional
[59] = Antimicrobial activity against erythromycin-nonsusceptible Streptococcus Group C clinical isolates by broth microdilution method; type: functional; conditions: Streptococcus sp. 'group C'
[60] = tested on: Staphylococcus epidermidis; assay: Antimicrobial activity against oxacillin-resistant Staphylococcus epidermidis clinical isolates assessed as resistant isolates by broth microdilution method; type: functional
Staphylococcus aureus [61] = assay: Antimicrobial activity against Staphylococcus aureus clinical isolates assessed as resistant isolates by broth microdilution method; type: functional
[62] = tested on: Staphylococcus epidermidis; assay: Antimicrobial activity against oxacillin-susceptible Staphylococcus epidermidis clinical isolates by broth microdilution method; type: functional
Streptococcus agalactiae [63] = assay: Antimicrobial activity against erythromycin-nonsusceptible Streptococcus agalactiae clinical isolates by broth microdilution method; type: functional
[64] = tested on: Staphylococcus epidermidis; assay: Antimicrobial activity against oxacillin-susceptible Staphylococcus epidermidis clinical isolates assessed as resistant isolates by broth microdilution method; type: functional
Streptococcus [65] = assay: Antimicrobial activity against erythromycin-nonsusceptible Streptococcus Group F clinical isolates by broth microdilution method; type: functional
[66] = tested on: Staphylococcus epidermidis; assay: Antimicrobial activity against oxacillin-resistant Staphylococcus epidermidis clinical isolates assessed as percent susceptible isolates by broth microdilution method; type: functional

With `CC[C@H]1OC(=O)[C@H](C)[C@@H](O[C@H]2C[C@@](C)(OC)[C@@H](O)[C@H](C)O2)[C@H](C)[C@@H](O[C@@H]2O[C@H](C)C[C@H](N(C)C)[C@H]2O)[C@](C)(O)C[C@@H](C)C(=O)[C@H](C)[C@@H](O)[C@]1(C)O` [ERYTHROMYCIN] the MIC90 (Streptococcus pyogenes [1]) was greater than 2 µg/mL, the Activity (Streptococcus pyogenes [2]) was 13.6% and the Activity (Staphylococcus aureus [3]) was 32.6%. For the same molecule, the MIC90 (Staphylococcus aureus [4]) was greater than 8 µg/mL, the “Percent of isolates resistant” value (Streptococcus pneumoniae [5]) was 11.6% and the Activity [6] was 100%. The MIC90 [7] was 2 µg/mL (≈ 2.73 µM), the Activity (Streptococcus pyogenes [8]) was 0% and the MIC90 [9] was 0.06 µg/mL (≈ 0.0818 µM). The Activity [10] was 0%, the MIC90 [11] was greater than 2 µg/mL and the MIC90 (Streptococcus pneumoniae [12]) was greater than 2 µg/mL. For the same molecule, the Activity (Staphylococcus aureus [13]) was 8.4%, the “Percent of isolates resistant” value (Staphylococcus aureus [14]) was 35.9% and the MIC90 (Streptococcus pneumoniae [15]) was greater than 2 µg/mL. For the same molecule, the Activity (Streptococcus pyogenes [16]) was 99.2%, the Activity [17] was 88.3% and the MIC90 [18] was greater than 8 µg/mL. For the same molecule, the MIC90 [19] was 0.06 µg/mL (≈ 0.0818 µM), the Activity (Streptococcus agalactiae [20]) was 100% and the MIC (Streptococcus pneumoniae [21]) was greater than 0.03 µg/mL. The Activity [22] was 51.4%, the Resistant isolates [23] was 78.4% and the Activity (Streptococcus agalactiae [24]) was 97.5%. The Activity (Streptococcus agalactiae [25]) was 28.7%, the Activity (Streptococcus agalactiae [26]) was 70.6% and the Activity (Streptococcus pneumoniae [27]) was 41.2%. It also gave an MIC90 (Staphylococcus aureus [28]) greater than 8 µg/mL, an Activity (Streptococcus pneumoniae [29]) of 67.3% and a Resistant isolates (Streptococcus pneumoniae [30]) of 32.4%. For the same molecule, the MIC90 (Streptococcus agalactiae [31]) was 0.06 µg/mL (≈ 0.0818 µM), the MIC [32] was no less than 0.12 µg/mL and the Activity (Staphylococcus aureus [33]) was 60.7%. For the same molecule, the Activity (Streptococcus pyogenes [34]) was 100%, the MIC90 [35] was 2 µg/mL (≈ 2.73 µM) and the Activity (Streptococcus pyogenes [36]) was 86.3%. It also gave an Activity (Streptococcus agalactiae [37]) of 0%, an Activity [38] of 53.8% and an MIC90 (Streptococcus [39]) of 0.06 µg/mL (≈ 0.0818 µM). The MIC90 (Streptococcus [40]) was 2 µg/mL (≈ 2.73 µM), the Activity (Streptococcus pneumoniae [41]) was 14.9% and the MIC90 (Streptococcus pyogenes [42]) was 0.06 µg/mL (≈ 0.0818 µM). The Activity [43] was 21.6%, the “Percent of isolates resistant” value (Streptococcus pneumoniae [44]) was 84.5% and the Activity [45] was 48.6%. For the same molecule, the “Percent of isolates resistant” value (Streptococcus pneumoniae [46]) was 58.8%, the MIC90 [47] was greater than 8 µg/mL and the MIC90 (Streptococcus pyogenes [48]) was greater than 2 µg/mL. It also gave an Activity [49] of 11.7%, an Activity [50] of 32.2% and an Activity (Streptococcus pneumoniae [51]) of 88.1%. It also gave an Activity [52] of 0%, an MIC90 (Streptococcus pneumoniae [53]) greater than 2 µg/mL and an MIC90 [54] greater than 8 µg/mL. For the same molecule, the “Percent of isolates resistant” value [55] was 67.2%, the Percent resistant isolates (Staphylococcus aureus [56]) was 90.5% and the Activity [57] was 100%. For the same molecule, the MIC90 (Streptococcus agalactiae [58]) was greater than 2 µg/mL, the MIC90 [59] was greater than 2 µg/mL and the “Percent of isolates resistant” value [60] was 75.3%. The Percent resistant isolates (Staphylococcus aureus [61]) was 65.3%, the MIC90 [62] was greater than 8 µg/mL and the MIC90 (Streptococcus agalactiae [63]) was greater than 2 µg/mL. For the same molecule, the “Percent of isolates resistant” value [64] was 45.4%, the MIC90 (Streptococcus [65]) was greater than 2 µg/mL and the Activity [66] was 24.1%.

Source: ChEMBL document CHEMBL1649268, “Comparative in vitro activity profile of oritavancin against recent gram-positive clinical isolates” (2009)
